Two molecules from article PMC10994559 (PLOS Neglected Tropical Diseases, 2024) can be followed below.

The subject of data set [1] is intracellular L. infantum amastigotes. The data set is described as follows: Parasite rescue assay (intramacrophage, J774 infected with L. infantum). The class given is cell-based, Leishmania infantum.
The subject of data set [2] is L. major axenic amastigotes. The data set is described as follows: L. major axenic amastigote viability, resazurin reduction. Here is the method: L. major LV561(MHOM/IL/67/LRC-L137 JERICHO II) amastigotes were passaged in Grace insect medium supplemented with NaHCO3, 0.1% amikin and 20% of FCS (pH: 5.4) and kept at 33°C.
Exponential growth phase promastigotes of L. major or L. infantum and axenic amastigotes (L. major) were harvested and seeded in 384 well plates (white, non-transparent, tissue culture treated, flat bottom; Corning) (0.5x10^5 cells per well). Compounds were pre-dispensed into the plate with an Echo 650 acoustic dispenser (Beckman Coulter). After 72h incubation, resazurin was added (1:10 v/v) from a […] stock in PBS, followed by incubation for six hours. Then, fluorescence intensity was measured using a microplate reader (Synergy H1, BioTek) with excitation filter: 550 nm and emission filter: 590 nm. Efficient compounds were selected for the next round of viability assay with 2.5 μM concentrations of the compounds. […] All experiments were performed with AmB as a positive control drug in parallel.
Axenic amastigotes, the relevant form that persists in the infected host, were generated in the lab through established procedures, employing harsh pH (pH 5) and high temperature (33°C) conditions.
On the technique in general: Resazurin is reduced to fluorescent resorufin, in cell work by metabolically active cells.

For data set [3], the system named is intracellular L. infantum amastigotes. The data set is described as follows: Parasite rescue assay (intramacrophage, J774 infected with L. infantum). The class given is cell-based, Leishmania infantum. As to the method:
After 24 h incubation, cells were washed five times with serum free RPMI and exposed to a serial dilution of test compounds, prepared using an acoustic dispenser (Echo 650, Labcyte), in RPMI (2% FCS). After two days, cells were washed thrice, and 20 μl of 0.05% SDS in RPMI was added upon removal of the supernatant. Upon incubation under orbital shaking for 30 seconds, cell lysis was stopped by addition of 180 μl M199 medium supplemented with 10% FCS. […] Then, fluorescence intensity of the samples was measured with a microplate reader (Synergy H1, BioTek) with λEx: 550 nm and λEm: 590 nm. Percent of viability was calculated according to cell only and media controls.
J774A.1 cells (J774) were infected with L. infantum metacyclic promastigotes. […] After controlled lysis of the infected macrophages, the released parasites were quantified using a resazurin based viability assay.
The source holds these as a separate data set.

Data set [4] concerns L. major promastigotes. As to the kind of experiment: L. major promastigote viability, resazurin reduction. The settings on record: for viability at 25 µM: Leishmania major, read-out: viability, L.major promastigote (25 µM). Type of data set: cell-based, Leishmania major. The text has this: (§1) The infectivity of the parasites was boosted by passaging in Balb/c mice and culturing the infected lymph nodes after six weeks. L. infantum (MHOM / BR / 76 / M4192) parasite was passaged in the same media formulation with 0.5% urine.

The test system of data set [5] is L. infantum promastigotes. The data set is described as follows: L. infantum promastigote viability, resazurin reduction. Type of data set: cell-based, Leishmania infantum. Particulars: sheet LTC_compound_viability, value ± spread.
From the text: as §1

Data set [6] deals with T. brucei brucei BSF. As to the kind of experiment: T. brucei BSF viability, resazurin reduction. Type of data set: cell-based, Trypanosoma brucei brucei. Here is the method:
T. brucei brucei (strain 427 Lister) blood stream form (BSF) parasites were passaged in complete HMI-9 media supplemented with 10% FCS, Pen-Strep (0.1%) and 2-mercaptoethanol (0.014 v/v) and kept in a 37° C CO2 incubator in filter-cap flasks.
(§2) Viability of T. brucei brucei BSF and T. cruzi trypomastigotes was assayed with fluorescence resazurin reduction assay, essentially as described above. […] Next, selected compounds were tested at 2.5 μM concentration, and promising compounds subjected to 18 concentrations dose response analyses. AN3057 and AmB were used as a control drug in T. brucei and T. cruzi, respectively.

For data set [7], the system named is T. cruzi trypomastigotes. The data set is described as follows: T. cruzi viability, resazurin reduction. The class given is cell-based, Trypanosoma cruzi. Here is the method:
T. cruzi (Y strain) trypomastigotes were passaged in liver infusion broth media supplemented with tryptose, NaCl, Na2HPO4, KCl, glucose, hemin, Pen-Strep (1%), 10% FCS (pH: 7.2) and kept at 28°C.
as §2

Data set [8] relates to Murine macrophage cells (J774). The data set is described as follows: Cytotoxicity assay J774, resazurin reduction. The settings on record: for EC50: cytotoxicity, 72 h. Type of data set: cell-based. Here is the method:
(§3) Mammalian cell lines (J774 and HepG2) were passaged in RPMI media supplemented with MEM, Pen-Strep (1%) and 10% FCS. Cultures were kept at 37°C incubator with 5% CO2 in filter-cap flasks.
(§4) Murine macrophage cells (J774) and human hepatocyte carcinoma HepG2 cells were seeded at 0.5x10^5 cell/well in 384 well plates in triplicate, exposed to serial dilution of compounds, dispensed using an Echo 650 acoustic dispenser (Labcyte). After incubation for 72 h at 37°C, 5% CO2, cell viability was determined using fluorescence resazurin reduction assay (λEx: 550 nm; λEm: 590 nm).

Data set [9] is described as follows: Cytotoxicity assay J774, resazurin reduction. The settings on record: mouse, J774 macrophage cells. The class given is cell-based, murine. Here is the method: as §3, §4
The subject of data set [10] is E. histolytica. As to the kind of experiment: E. histolytica viability, ATP luminescence (Cell titer glo). The class given is cell-based, Entamoeba histolytica. Here is the method: Entamoeba histolytica (strain B2-5) was passaged in TY-1 medium (Trypticase peptone BBL, Yeast extract BBL, glucose, NaCl, K2HPO4, KH2PO4, cysteine, ascorbic acid, ammonium iron citrate, adult bovine serum, Diamond tween 80, penicillin G, amikacin (pH:6.8)) and kept in 37°C incubator in completely filled tubes with closed lid.
Viability of E. histolytica was assayed via a luminescence assay based on ATP quantification in the live cells. Briefly, 2.5x10^4 cell/ml were exposed to 25 μM of compounds in 96 well plates (non-transparent, tissue culture treated, flat bottom; SPL Life Sciences) in triplicate for 48h. Plates were incubated in sealed anaerobic bags (Oxoid AGS) together with an Anaerogen compact bag (Thermo Scientific) and anaerobic indicator (Thermo Scientific) at 37°C. Then, Cell titer glo reagent (Promega) was added to the reaction (1:5) according to manufacturers’ instruction. After 15 min of orbital shaking, followed by 10 min incubation at RT, ATP-bioluminescence was quantified at RT using a Synergy H1 plate reader (Synergy H1, BioTek). Metronidazole was included as control drug in all the assays for E. histolytica. Test compounds indicating significant growth reduction in the primary screen were subjected to potency determination. These secondary screens were essentially carried out as detailed above, but with a 9 to 16-point concentration range of the test compounds spanning 0.01–100 μM.

Read-outs that look alike come from different tables or passages of the source. A value given as a limit tells only on which side of the number the result lay.

In the case of `CC(C)(C)OC(=O)NC(Cc1ccccc1)C(O)CNc1ccc(C(C)(C)C)cc1` (stereo not shown) [LTC-1035], the viability at 25 µM turned out to be 11.4 ± 1.86% in data set [1] (J774, 25 µM, intracellular amastigote, read-out: viability, intracellular L. major amastigote (25 µM)); 27.7 ± 0.6% in data set [2] (Leishmania major, read-out: viability, L.major amastigote (25 µM)); 89.5 ± 1.08% in data set [4] (72 h); 2.19 ± 1.75% in [4] (25 µM); 0.84 ± 0.54% in data set [5] (Leishmania infantum, 25 µM, read-out: viability, L. infantum promastigote (25 µM)); 2.22 ± 0.96% in data set [6] (Trypanosoma brucei, 25 µM, read-out: viability, T.brucei (25 µM)). The viability at 25 µM was found to be 25.6 ± 1.61% in data set [7] (Trypanosoma cruzi, 25 µM, read-out: viability, T.cruzi (25 µM)) and 101 ± 21.2% in data set [10] (Entamoeba histolytica, read-out: viability, E.histolytica (25 µM)). In addition, the viability at 2.5 µM in data set [2] (Leishmania major, read-out: viability, L.major amastigote(2.5 µM)) came to 71.4 ± 0.91%; in data set [5] (Leishmania infantum, 2.5 µM, read-out: viability, L. infantum promastigote (2.5 µM)), 68.3 ± 1.6%; in data set [6] (Trypanosoma brucei, 2.5 µM, read-out: viability, T.brucei (2.5 µM)), 71.2 ± 5.31%; in data set [7] (Trypanosoma cruzi, 2.5 µM, read-out: viability, T.cruzi (2.5 µM)) it was 63.9 ± 2.75%; in data set [10] (Entamoeba histolytica, read-out: viability, E.histolytica (2.5 µM)), 48.5 ± 2.26%. Besides, the EC50 is 6.7 ± 1.7 µM in data set [3] (Leishmania infantum, J774, read-out: EC50 L. infantum rescue assay, intramacrophage (J774), 18 concentrations); 6.67 ± 1.7 µM in data set [3] (read-out: EC50 L. infantum rescue assay, intramacrophage (J774), 18 concentrations); 2.9 ± 1.7 µM in data set [6] (Trypanosoma brucei, read-out: EC50 T. brucei BSF, dose response, triplicate, ± SD (Table 2) / ± SE (S3 Table)); > 25 µM in [8] (Mus musculus, J774, 72 h); > 16 µM in data set [8]. Also, the viability at 72 h, 2.5 µM in data set [9] (2.5 µM, read-out: viability, J774 (2.5 µM)) came to 92.3 ± 5.33%. Moreover, the viability at 72 h, 25 µM in [9] (25 µM, read-out: viability, J774 (25 µM)) amounted to 95.4 ± 11.3%.

Regarding LTC-4, the “viability, intracellular L. major amastigote (25 µM)” value in [1] (25 µM) worked out at 76.09±31.52. Further, the “viability, L.major amastigote (25 µM)” value in data set [2] (25 µM) was found to be 76.6±1.33. The “viability, L.major promastigote (25 µM)” value in data set [4] (25 µM) was found to be 1.56±2.86; in [4] (head prints 25 µM, second of two columns with this head), 60.14±7.43. The “viability, L. infantum promastigote (2.5 µM)” value in data set [5] (2.5 µM) came out at 85.51±1.79. For the same molecule, in data set [5] (25 µM), the “viability, L. infantum promastigote (25 µM)” value is given as 24.04±0.45. The “viability, T.brucei (2.5 µM)” value in [6] (2.5 µM) was found to be 100.44±5.5. Further, the “viability, T.brucei (25 µM)” value in data set [6] (25 µM) came out at 89.28±12.34. Further, in data set [7] (2.5 µM), the “viability, T.cruzi (2.5 µM)” value came out at 57.84±2.64. Further, in data set [7] (25 µM), the “viability, T.cruzi (25 µM)” value is on record as 58.59±2.21. Moreover, the “viability, J774 (2.5 µM)” value in [8] (2.5 µM) is 100.11±5.45. The “viability, J774 (25 µM)” value in data set [8] (25 µM) turned out to be 144.21±37.63. Also, the “viability, E.histolytica (2.5 µM)” value in data set [10] (2.5 µM) was 68±7.58. The “viability, E.histolytica (25 µM)” value in data set [10] (25 µM) came to 71.3±5.74.

Broadly, the viability is a read-out of living cells in per cent, often relative to untreated cells.
